According to paper PMC9575645 (Signal Transduction and Targeted Therapy, 2022):

Columns and labels:
[1] = test system: LD lipolysis (FFA and glycerol release); experiment: Intracellular FFA and glycerol quantification in IAV-infected A549 cells; assay type: cell-based, human; conditions: 20 µM at 12 hpi, vs vehicle-treated control
Protocol: (§1) Cells were grown in 6- or 12-well plates or 8-well chamber slides to the desired confluency and then washed twice with phosphate-buffered saline (PBS, pH 7.4). They were then mock-inoculated with medium only or virus-inoculated with various multiplicities of infection (MOI): MOI of 0.01 or 1 FFU/cell for IAV, and MOI of 0.01 or 0.1 FFU/cell for SARS-CoV-2, BCoV, PEDV, PRRSV, and PSaV. Thereafter, each inoculum was absorbed for 1 h, and the cells were washed twice with PBS (pH 7.4). As shown in Supplementary Table 4, further treatments and incubations varied dependent on the virus species used. […]
(§2) To determine intracellular levels of free fatty acids, the different cultured cells infected with or without the seven target RNA viruses, or treated with or without different concentrations of chemicals, and the lung samples from experimental mice and hamsters were prepared as described above. The amount of intracellular free fatty acid was determined using a quantification kit from BioVision according to the manufacturer’s recommendations.^31 Briefly, 5x10^6 cells or 100 mg of lung tissue were mixed with 500 μL of chloroform-Triton X-100 (1% Triton X-100 in pure chloroform) with vortexing at five-minute intervals for 20 min at 20°C. […]

HRT18G = experiment: Cytotoxicity, MTT assay, HRT18G; assay type: cell-based, human
Protocol: (§3) The cytotoxic effects of the chemicals and their solvents were tested by the MTT assay,[44] and its procedure is described in Supplementary Information.
(§4) The cytotoxic effects of the chemicals and their solvents used were tested by the MTT assay as described previously.^10 In brief, the chemicals were dissolved in DMSO to a stock concentration of 10 mM, and then freshly serially diluted in serum-free medium before being added to cell culture monolayers. The absorbance was measured using an enzyme-linked immunosorbent assay (ELISA) reader at an optical density (OD) of 570 nm. The percent cell viability was calculated using the following formula, [(ODsample˗ODblank)/(ODcontrol˗ODblank)] × 100%. According to the cell cytotoxicity data, dose-response curves were generated for the calculation of CC50 using GraphPad Prism software version 8.4.2.

[2] = test system: LD lipolysis (FFA and glycerol release); experiment: Intracellular FFA and glycerol quantification in SARS-CoV-2-infected Vero E6 cells; assay type: cell-based, African green monkey; conditions: SARS-CoV-2-infected cells; 20 µM at 18 hpi; vs vehicle-treated control
Protocol: as §1, §2

[3] = In vivo toxicity in mice (body weight, gross and histopathological organ changes); conditions: for gross and histopathological changes in major organs (liver, lung, kidney, heart, spleen): 0.1, 1, or 10 mg kg^-1 d^-1 Bid for 4 consecutive days
seven target RNA viruses = experiment: Broad-spectrum antiviral effect at 1-20 µM at different treatment times (RT-qPCR, CCIF); assay type: cell-based; conditions: all target RNA viruses, treated just prior to the peak of lipase activity vs immediately after virus absorption
[4] = test system: proinflammatory cytokines; experiment: Proinflammatory cytokines in IAV-infected A549 cells (RT-qPCR, ELISA); assay type: cell-based, human; conditions: 20 μM
IAV HA and M2 proteins = assay type: cell-based, Influenza A virus
MARC = experiment: Cytotoxicity, MTT assay, MARC; assay type: cell-based, African green monkey
Protocol: as §3, §4

Row | SMILES | levels of intracellular FFAs and glycerol [1] | CC50 (HRT18G) | levels of intracellular FFAs and glycerol [2] | gross and histopathological changes in major organs (liver, lung, kidney, heart, spleen) [3] | overt signs of toxicity, including loss of body weight ([3]; intraperitoneal 10 mg kg^-1 d^-1) | viral genome replication and infectious progeny production (seven target RNA viruses) | proinflammatory cytokines IFN-α, IFN-β, TNF-α, IL-6, MCP-1 [4] | palmitoylation of IAV HA and M2 proteins (IAV HA and M2 proteins) | CC50 (MARC)
1 | CN(C)C(=O)Nc1cccc(-c2ccc(N(C)C)cc2)c1 [Atglistatin] | significantly reduced | 182 ± 2.6 µM | significantly reduced | no gross and histopathological changes | did not induce any overt signs of toxicity | greater reduction in viral genome replication and infectious progeny production of all target RNA viruses in a dose-dependent manner | significantly reduced | significantly inhibited | 212 ± 3.5 µM
2 | COc1nn(-c2ccc(NC(=O)OCc3ccccc3)c(C)c2)c(=O)o1 [CAY10499] | significantly reduced | 104 ± 9.1 µM | significantly reduced | no gross and histopathological changes | – | greater reduction in viral genome replication and infectious progeny production of all target RNA viruses in a dose-dependent manner | significantly reduced | significantly inhibited | 101 ± 4 µM
